Values of other authors in US20250255875A1, “BIFUNCTIONAL CHIMERIC MOLECULES FOR LABELING OF KINASES WITH TARGET BINDING MOIETIES AND METHODS OF USE THEREOF” (The Brigham and Women's Hospital, Inc., priority 2022, published 2025).

Assays:
Recombinant PK… (PKCζ) = target: T1, Recombinant PK… (PKCζ) (Homo sapiens, UniProt Q05513)
T1 sequence (Q05513 1-592): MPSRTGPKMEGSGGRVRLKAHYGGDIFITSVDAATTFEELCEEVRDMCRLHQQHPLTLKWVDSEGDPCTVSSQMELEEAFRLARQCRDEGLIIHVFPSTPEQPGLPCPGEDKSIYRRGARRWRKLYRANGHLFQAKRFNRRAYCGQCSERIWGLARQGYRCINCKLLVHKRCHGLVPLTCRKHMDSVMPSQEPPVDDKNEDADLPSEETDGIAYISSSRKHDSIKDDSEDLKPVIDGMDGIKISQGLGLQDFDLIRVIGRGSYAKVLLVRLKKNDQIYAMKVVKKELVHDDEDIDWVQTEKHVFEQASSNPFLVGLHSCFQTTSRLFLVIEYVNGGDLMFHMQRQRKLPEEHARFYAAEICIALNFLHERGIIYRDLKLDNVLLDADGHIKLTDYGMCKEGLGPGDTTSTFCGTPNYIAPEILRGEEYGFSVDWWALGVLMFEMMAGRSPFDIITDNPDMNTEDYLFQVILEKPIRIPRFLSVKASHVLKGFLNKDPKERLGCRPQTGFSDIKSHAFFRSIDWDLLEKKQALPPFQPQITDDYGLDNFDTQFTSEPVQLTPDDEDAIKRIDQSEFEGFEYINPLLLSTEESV

NF-kB = details: mice
mutant EGFR = details: 0.01-10 uM
MERS-COV = details: in vitro
p38α MAPK = p38α MAPK (Homo sapiens, UniProt Q16539)
c-Met = c-Met (Homo sapiens, UniProt P08581)
[1] = system: breast, prostate, colon and pancreatic carcinoma xenografts; details: in vivo
Lyn kinase = details: knockout mice
[2] = not given; remark: listed apart in the source

c-Met, sequence (P08581 25-1390): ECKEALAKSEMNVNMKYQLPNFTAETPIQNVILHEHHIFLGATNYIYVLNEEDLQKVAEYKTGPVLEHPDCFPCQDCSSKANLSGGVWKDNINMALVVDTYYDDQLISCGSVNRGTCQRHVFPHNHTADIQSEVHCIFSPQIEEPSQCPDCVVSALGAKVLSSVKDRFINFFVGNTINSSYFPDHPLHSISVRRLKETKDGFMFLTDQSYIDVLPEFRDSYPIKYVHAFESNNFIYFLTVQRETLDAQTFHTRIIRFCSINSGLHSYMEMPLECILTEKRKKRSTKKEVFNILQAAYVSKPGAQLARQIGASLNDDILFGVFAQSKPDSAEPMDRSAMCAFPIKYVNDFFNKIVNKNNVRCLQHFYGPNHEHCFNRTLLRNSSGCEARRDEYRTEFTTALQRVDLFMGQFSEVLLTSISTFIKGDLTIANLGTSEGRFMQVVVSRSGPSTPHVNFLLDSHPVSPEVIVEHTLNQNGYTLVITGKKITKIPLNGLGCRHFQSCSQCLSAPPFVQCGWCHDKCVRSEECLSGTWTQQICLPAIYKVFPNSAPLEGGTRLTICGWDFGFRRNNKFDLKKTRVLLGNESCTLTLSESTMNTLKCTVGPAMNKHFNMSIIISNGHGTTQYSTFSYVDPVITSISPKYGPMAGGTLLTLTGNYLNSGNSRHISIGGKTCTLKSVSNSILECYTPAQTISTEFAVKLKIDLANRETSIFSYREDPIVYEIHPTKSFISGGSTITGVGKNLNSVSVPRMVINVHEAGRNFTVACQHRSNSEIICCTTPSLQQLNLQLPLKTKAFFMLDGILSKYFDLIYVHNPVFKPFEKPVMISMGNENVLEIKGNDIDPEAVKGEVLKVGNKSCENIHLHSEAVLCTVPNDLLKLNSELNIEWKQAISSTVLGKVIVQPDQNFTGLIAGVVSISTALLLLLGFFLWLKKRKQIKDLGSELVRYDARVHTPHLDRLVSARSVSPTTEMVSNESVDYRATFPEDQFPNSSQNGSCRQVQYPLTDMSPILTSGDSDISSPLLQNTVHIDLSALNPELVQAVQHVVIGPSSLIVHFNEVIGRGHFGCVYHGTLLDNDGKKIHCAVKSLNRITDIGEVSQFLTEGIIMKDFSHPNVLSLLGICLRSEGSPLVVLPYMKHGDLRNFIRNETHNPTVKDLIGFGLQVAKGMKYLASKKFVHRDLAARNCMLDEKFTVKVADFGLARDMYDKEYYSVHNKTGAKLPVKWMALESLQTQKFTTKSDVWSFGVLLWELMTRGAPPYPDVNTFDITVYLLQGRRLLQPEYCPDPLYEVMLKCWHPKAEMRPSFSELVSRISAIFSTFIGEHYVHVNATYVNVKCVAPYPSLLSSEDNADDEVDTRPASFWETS
p38α MAPK, sequence (Q16539 whole entry): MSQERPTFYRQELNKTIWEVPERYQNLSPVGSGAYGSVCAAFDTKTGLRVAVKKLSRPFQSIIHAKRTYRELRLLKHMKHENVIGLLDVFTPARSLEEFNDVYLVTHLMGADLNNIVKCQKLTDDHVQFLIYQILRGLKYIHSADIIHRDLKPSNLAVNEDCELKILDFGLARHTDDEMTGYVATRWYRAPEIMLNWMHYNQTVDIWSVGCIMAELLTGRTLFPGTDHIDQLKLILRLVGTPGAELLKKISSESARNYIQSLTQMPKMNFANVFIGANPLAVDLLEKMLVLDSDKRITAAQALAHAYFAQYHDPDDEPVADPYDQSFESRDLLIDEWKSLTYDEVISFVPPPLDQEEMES

SMILES | reporter gene assay % inhibu at 5 μM (NF-…B Pathway) [%] | cell-free assay % inhibu at 62.5 μM (Recombinant PK… (PKCζ)) [%] | also measured
CC(C)(C)C1=NN(c2ccc(Cl)cc2)C(c2ccc(O)cc2)C1 (stereo not drawn) [1a] | 75.1 | – | –
CC(C)(C)C1=NN(c2ccc(F)cc2)C(c2ccc(O)cc2)C1 (stereo not drawn) [1b] | 63.8 | 95.5 | –
CC(C)(C)C1=NN(c2ccc(Br)cc2)C(c2ccc(O)cc2)C1 (stereo not drawn) [1c] | 58.4 | 93.2 | –
Cc1ccc(N2N=C(C(C)(C)C)CC2c2ccc(O)cc2)cc1 (stereo not drawn) [1e] | 62.9 | – | –
CC(C)(C)C1=NN(c2cccc(Cl)c2)C(c2ccc(O)cc2)C1 (stereo not drawn) [1h] | 64.6 | 96.8 | –
CC(C)(C)C1=NN(c2cccc(C(F)(F)F)c2)C(c2ccc(O)cc2)C1 (stereo not drawn) [1j] | 89.7 | 96.1 | –
Cc1cccc(N2N=C(C(C)(C)C)CC2c2ccc(O)cc2)c1 (stereo not drawn) [1k] | 73.7 | 91.7 | –
Cc1ccc2nc(NCCN)c3ncc(C)n3c2c1.Cl [BMS-345541] | – | – | activity against LPS-induced NF-kB activation (NF-kB): active
O=C(NOCC(O)CO)c1ccc(F)c(F)c1Nc1ccc(I)cc1F (stereo not drawn) [Compound 35] | – | – | Sol (pH 6.5): 255, μg/mL
O=C(Nc1nccs1)C(c1cc(F)ccc1O)N1Cc2ccc(-c3ccc(N4CCNCC4)cc3)cc2C1=O (stereo not drawn) [JBJ-04-125-02] | – | – | EGFR phosphorylation (mutant EGFR): inhibited EGFR phosphorylation
CO[C@H]1C[C@@H]2CC[C@@H](C)[C@@](O)(O2)C(=O)C(=O)N2CCCC[C@H]2C(=O)O[C@H]([C@H](C)C[C@@H]2CC[C@@H](O)[C@H](OC)C2)CC(=O)[C@H](C)/C=C(\C)[C@@H](O)[C@@H](OC)C(=O)[C@H](C)C[C@H](C)/C=C/C=C/C=C/1C [Sirolimus] | – | – | MERS-COV infection of Huh7 cells (MERS-COV): inhibits MERS-COV infection
O=C1c2ccc(Nc3ccc(F)cc3F)cc2CCc2ccc(OC[C@H](O)CO)cc21 [Skepinone-B] | – | – | residence time (p38α MAPK): 150 s
O=C1NC(=O)[C@@H](c2cn3c4c(cccc24)CCC3)[C@@H]1c1c[nH]c2ccccc12 [Tivantinib, tivantinib] | – | – | selectivity for c-Met over other kinases tested (c-Met): 10-100 time; growth of carcinoma xenografts [1]: inhibition of growth
Cc1cccc(Oc2cnc(=O)[nH]c2)c1 [Tolimidone, tolimidone] | – | – | glucose lowering when Lyn kinase was absent (Lyn kinase): did not lower glucose
CC(=O)Nc1cccc(-n2c(=O)n(C3CC3)c(=O)c3c(Nc4ccc(I)cc4F)n(C)c(=O)c(C)c32)c1 [Trametinib] | – | – | Absorption/distribution of an oral dose of tablet [2]: 72%
